Measured values as given in article PMC5060005 (Bioorganic & medicinal chemistry, 2016).
Counter-ions that a name gives are not always drawn. Like-named read-outs stand apart in the source and are kept apart here.

Assays:
[1] = target: 5-HT7 receptor (Homo sapiens, UniProt P34969)
[2] = target: SERT (Homo sapiens, UniProt P31645); conditions: MTA = Missed 50% of threshold inhibition; Ki without SEM within 20% of mean
[3] = target: 5-HT1A receptor (Homo sapiens, UniProt P08908)
[4] = target: histamine H1 receptor (Homo sapiens, UniProt P35367); conditions: MTA = Missed 50% of threshold inhibition; Ki without SEM within 20% of mean
[5] = target: D3 receptor (Homo sapiens, UniProt P35462); conditions: MTA = Missed 50% of threshold inhibition; Ki without SEM within 20% of mean
[6] = target: D2 receptor (Homo sapiens, UniProt P14416); conditions: MTA = Missed 50% of threshold inhibition; Ki without SEM within 20% of mean
[7] = target: 5-HT2B receptor (Homo sapiens, UniProt P41595); conditions: MTA = Missed 50% of threshold inhibition; Ki without SEM within 20% of mean
[8] = target: 5-HT2A receptor (Homo sapiens, UniProt P28223)
[9] = target: 5-HT2C receptor (Homo sapiens, UniProt P28335); conditions: MTA = Missed 50% of threshold inhibition; Ki without SEM within 20% of mean
[10] = MTA = Missed 50% of threshold inhibition, Ki without SEM within 20% of mean

Sequence of SERT (P31645 whole entry, species assumed): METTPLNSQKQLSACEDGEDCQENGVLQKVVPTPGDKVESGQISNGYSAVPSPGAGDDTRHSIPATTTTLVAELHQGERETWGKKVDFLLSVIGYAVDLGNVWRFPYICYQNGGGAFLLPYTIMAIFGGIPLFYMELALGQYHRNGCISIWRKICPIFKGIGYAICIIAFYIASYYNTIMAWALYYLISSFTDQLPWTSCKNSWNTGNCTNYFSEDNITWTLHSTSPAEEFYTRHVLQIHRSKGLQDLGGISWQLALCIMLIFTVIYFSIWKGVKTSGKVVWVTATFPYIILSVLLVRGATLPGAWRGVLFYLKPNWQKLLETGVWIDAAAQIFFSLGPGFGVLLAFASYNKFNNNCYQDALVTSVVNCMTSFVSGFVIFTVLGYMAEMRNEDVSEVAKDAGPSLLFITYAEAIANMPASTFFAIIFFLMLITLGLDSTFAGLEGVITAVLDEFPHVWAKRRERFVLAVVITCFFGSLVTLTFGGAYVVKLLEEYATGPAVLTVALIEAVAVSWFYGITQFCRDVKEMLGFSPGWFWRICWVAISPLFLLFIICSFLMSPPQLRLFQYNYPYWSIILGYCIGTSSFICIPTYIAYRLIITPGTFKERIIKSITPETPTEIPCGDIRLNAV
Sequence of 5-HT2C receptor (P28335 33-458): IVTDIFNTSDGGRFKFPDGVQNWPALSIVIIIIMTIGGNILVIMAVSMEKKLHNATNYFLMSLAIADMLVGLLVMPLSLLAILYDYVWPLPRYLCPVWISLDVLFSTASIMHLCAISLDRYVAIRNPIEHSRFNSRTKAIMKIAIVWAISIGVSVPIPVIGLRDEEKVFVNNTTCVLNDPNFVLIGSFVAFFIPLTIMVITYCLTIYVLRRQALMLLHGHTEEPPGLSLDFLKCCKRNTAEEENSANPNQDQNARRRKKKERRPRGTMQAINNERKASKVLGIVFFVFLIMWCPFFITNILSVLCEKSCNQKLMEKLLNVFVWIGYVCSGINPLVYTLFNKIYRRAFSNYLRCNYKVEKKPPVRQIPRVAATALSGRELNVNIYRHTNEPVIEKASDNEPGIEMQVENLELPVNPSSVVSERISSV
Sequence of 5-HT2B receptor (P41595 whole entry): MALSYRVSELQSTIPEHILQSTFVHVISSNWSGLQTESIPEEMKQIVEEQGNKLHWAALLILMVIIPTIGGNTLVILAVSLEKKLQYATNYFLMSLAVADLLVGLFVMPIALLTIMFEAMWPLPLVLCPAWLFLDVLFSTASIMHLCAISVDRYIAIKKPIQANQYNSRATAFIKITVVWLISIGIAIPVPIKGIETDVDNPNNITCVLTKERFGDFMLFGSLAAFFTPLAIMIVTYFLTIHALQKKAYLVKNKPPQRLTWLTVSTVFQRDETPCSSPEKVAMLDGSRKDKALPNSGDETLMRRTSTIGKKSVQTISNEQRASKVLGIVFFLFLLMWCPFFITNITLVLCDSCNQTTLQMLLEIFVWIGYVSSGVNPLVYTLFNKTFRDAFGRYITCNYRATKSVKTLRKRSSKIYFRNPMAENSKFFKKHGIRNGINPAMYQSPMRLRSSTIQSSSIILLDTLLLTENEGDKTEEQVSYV
Sequence of histamine H1 receptor (P35367 whole entry, species assumed): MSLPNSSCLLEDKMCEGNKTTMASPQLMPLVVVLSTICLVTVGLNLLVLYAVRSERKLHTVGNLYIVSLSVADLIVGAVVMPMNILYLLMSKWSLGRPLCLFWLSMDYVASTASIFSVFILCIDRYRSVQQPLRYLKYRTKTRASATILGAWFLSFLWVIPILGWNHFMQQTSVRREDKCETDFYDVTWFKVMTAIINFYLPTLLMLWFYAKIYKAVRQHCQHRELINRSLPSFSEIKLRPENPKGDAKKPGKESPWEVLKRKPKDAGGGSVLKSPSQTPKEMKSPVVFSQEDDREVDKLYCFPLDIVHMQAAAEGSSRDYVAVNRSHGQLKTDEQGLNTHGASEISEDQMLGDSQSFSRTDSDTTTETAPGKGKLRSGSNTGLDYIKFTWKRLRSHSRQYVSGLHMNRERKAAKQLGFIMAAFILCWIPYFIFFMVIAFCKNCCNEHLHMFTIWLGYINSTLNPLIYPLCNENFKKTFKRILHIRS
Sequence of 5-HT7 receptor (P34969 whole entry): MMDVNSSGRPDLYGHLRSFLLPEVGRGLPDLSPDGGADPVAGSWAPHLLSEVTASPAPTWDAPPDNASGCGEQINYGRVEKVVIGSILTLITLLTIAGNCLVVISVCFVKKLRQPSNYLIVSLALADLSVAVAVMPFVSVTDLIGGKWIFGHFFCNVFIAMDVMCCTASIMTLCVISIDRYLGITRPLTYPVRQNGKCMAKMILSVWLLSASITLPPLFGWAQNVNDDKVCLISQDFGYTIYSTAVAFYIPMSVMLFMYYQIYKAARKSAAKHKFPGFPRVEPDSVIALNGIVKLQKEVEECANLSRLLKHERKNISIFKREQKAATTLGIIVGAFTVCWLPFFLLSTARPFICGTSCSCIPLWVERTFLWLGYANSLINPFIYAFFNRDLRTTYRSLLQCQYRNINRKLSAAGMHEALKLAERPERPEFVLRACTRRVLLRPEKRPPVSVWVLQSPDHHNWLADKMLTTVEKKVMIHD
Sequence of 5-HT2A receptor (P28223 whole entry): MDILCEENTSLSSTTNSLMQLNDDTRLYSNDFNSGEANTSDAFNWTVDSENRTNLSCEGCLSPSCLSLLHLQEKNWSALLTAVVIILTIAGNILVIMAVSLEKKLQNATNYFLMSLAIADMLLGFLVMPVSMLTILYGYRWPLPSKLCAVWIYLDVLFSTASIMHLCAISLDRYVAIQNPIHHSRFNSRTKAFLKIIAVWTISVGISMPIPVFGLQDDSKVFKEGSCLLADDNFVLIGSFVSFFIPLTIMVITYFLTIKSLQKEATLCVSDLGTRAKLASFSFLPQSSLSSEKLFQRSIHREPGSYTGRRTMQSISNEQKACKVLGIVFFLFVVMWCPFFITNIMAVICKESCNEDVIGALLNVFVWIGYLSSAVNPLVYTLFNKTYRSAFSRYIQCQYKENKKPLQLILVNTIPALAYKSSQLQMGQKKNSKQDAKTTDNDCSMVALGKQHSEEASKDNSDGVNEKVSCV
Sequence of D2 receptor (P14416 whole entry): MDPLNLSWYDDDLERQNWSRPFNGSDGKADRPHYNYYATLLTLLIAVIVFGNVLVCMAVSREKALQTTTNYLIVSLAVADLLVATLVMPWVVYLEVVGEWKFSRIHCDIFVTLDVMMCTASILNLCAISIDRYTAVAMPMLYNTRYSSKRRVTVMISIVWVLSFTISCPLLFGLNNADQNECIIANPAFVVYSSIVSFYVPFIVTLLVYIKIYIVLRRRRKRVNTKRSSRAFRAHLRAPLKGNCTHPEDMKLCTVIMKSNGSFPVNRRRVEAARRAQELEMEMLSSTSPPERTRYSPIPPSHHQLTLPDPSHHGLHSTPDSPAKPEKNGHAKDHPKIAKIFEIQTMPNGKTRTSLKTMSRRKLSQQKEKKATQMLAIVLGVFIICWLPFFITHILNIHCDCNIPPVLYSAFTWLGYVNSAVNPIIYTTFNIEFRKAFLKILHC
Sequence of 5-HT1A receptor (P08908 whole entry): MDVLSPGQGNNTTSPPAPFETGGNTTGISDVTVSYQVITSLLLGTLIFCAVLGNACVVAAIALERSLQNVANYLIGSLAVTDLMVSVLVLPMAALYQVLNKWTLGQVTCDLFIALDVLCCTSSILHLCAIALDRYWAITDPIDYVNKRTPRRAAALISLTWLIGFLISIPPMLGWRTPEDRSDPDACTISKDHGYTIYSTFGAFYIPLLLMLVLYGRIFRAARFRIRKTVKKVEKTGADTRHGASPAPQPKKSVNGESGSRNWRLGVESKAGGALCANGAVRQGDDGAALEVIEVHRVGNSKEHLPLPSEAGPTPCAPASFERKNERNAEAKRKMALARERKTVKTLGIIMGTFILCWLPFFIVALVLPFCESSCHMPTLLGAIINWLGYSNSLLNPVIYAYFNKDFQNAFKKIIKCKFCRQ
Sequence of D3 receptor (P35462 whole entry): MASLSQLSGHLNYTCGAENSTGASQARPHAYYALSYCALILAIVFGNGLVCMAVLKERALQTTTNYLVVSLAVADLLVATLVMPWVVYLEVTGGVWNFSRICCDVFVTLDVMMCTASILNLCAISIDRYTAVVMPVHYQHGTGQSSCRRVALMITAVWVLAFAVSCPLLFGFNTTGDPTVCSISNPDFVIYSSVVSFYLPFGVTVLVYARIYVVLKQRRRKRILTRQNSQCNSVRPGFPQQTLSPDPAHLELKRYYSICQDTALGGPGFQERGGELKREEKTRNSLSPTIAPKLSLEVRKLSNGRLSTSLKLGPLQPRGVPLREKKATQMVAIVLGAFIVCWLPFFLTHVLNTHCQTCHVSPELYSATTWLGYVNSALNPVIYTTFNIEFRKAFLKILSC

| Compound | Ki SERT [2] | Ki 5-HT2B [7] | Ki 5-HT2C [9] | further results |
| --- | --- | --- | --- | --- |
| O=C1c2ccccc2C(=O)N1CCCCN1CCC2CCCCC2C1 (centres unmarked) [Compound 2, 2-(4-(Octahydroisoquinolin-2(1H)-yl)butyl)isoindoline-1,3-dione] |  |  |  | decrease in binding affinity to the 5-HT7R ([1]; relative to compound 1): ~40 fold |
| Cl.Fc1ccc(SCCCN2CCc3ccccc3C2)cc1 [Compound 8, 2-(3-((4-Fluorophenyl)thio)propyl)-1,2,3,4-tetrahydroisoquinoline hydrochloride] | MTA |  |  |  |
| O=C1c2ccccc2C(=O)N1CCCCN1Cc2ccccc2C1 [Compound 3, 2-(4-(Isoindolin-2-yl)butyl)isoindoline-1,3-dione] | MTA | MTA |  | Ki 5-HT1A [3, 10]: MTA; Ki H1 [4]: MTA; Ki D3 [5]: MTA; Ki D2 [6]: MTA; Ki 5-HT7 [1, 10]: MTA; Ki 5-HT2A [8, 10]: MTA |
| O=C(CCCN1CCc2ccccc2C1)c1ccc(O)cc1 [Compound 15, 4-(3,4-Dihydroisoquinolin-2(1H)-yl)-1-(4-hydroxyphenyl)butan-1-one hydrochloride] |  |  | MTA |  |
| Cl.[O-][S+](CCCN1CCc2ccccc2C1)c1ccc(F)cc1 (centres unmarked) [Compound 9, 2-(3-((4-Fluorophenyl)sulfinyl)propyl)-1,2,3,4-tetrahydroisoquinoline hydrochloride] | MTA |  | MTA |  |
| Cl.Fc1ccc(OCCCN2CCc3ccccc3C2)cc1 [Compound 7, 2-(3-(4-Fluorophenoxy)propyl)-1,2,3,4-tetrahydroisoquinoline hydrochloride] | MTA |  | MTA |  |
| c1ccc2c(c1)CCN(CCCCc1c[nH]c3ccccc13)C2 [Compound 4, 2-(4-(1H-indol-3-yl)butyl)-1,2,3,4-tetrahydroisoquinoline] |  | MTA | MTA |  |
| Cl.Fc1ccc2c(c1)CC(CCN1CCc3ccccc3C1)C2 (centres unmarked) [Compound 5, 2-(2-(5-Fluoro-2,3-dihydro-1H-inden-2-yl)ethyl)-1,2,3,4-tetrahydroisoquinoline hydrochloride] |  |  | MTA |  |
| O=C(CCCN1CCc2ccccc2C1)c1ccc(F)cc1 [Compound 10, 4-(3,4-Dihydroisoquinolin-2(1H)-yl)-1-(4-fluorophenyl)butan-1-one] | MTA |  |  | increase in binding affinity at the 5-HT1AR ([3]; relative to compound 9): 3 fold |
| O=C1c2ccccc2C(=O)N1CCCCN1CCc2ccccc2C1 [Compound 1, 2-(4-(3,4-Dihydroisoquinolin-2(1H)-yl)butyl)isoindoline-1,3-dione] | MTA | MTA | MTA | Ki H1 [4]: MTA; Ki D2 [6]: MTA; Ki 5-HT2A [8]: MTA |
